From US20150157739A1, “Imidazo[2,1]thiazol-3-one derivatives” (Hoffmann-La Roche Inc., priority 2012, published 2015)

How the values were obtained:
[1] = molecular target: T1, aggregated synthetic Aβ40 (Homo sapiens, UniProt P05067); assay: Thiazin-red R displacement fluorescence assay on aggregated A-beta; format: binding; conditions: displacement of Thiazin-red R from aggregated Aβ40; compound 0.3 nM to 10000 nM; 30 min room temperature; Ex 531 nm/Em 595 nm
T1 construct: Synthetic Aβ40 is aggregated at a concentration of 50 μM
Description: (§1) Assay for Determination of […] for Tau and A-Beta
(§2) Recombinant human-microtubule associated protein Tau purified from E. coli is aggregated at a concentration of 5 μM with Arachidonic Acid (100 μM) in Tris 10 mM pH8, 24 h at 37° C. Synthetic Aβ40 is aggregated at a concentration of 50 μM with Arachidonic Acid (100 μM) in Tris 10 mM pH8, for three days at 37° C., under shaking at 150 rpm.
(§3) A saturation analysis of Thiazin-red R to the aggregated proteins is done to determine the affinity (Kd) of the Thiazin-red R to the aggregated protein.
(§4) Thiazin-red R will be added at the concentration corresponding to the Kd to the respective aggregated protein binding site, to induce a fluorescent signal that can be inhibited by the addition of a displacer compound.
(§5) In parallel, auto fluorescence of the compound is measured together with the aggregated proteins, but without Thiazin-red R. As negative control, ligand and aggregated protein is used and as positive control, Thiazin-red R, reference compound with known activity and aggregated protein is used.
(§6) Assay is performed in Perkin Elmer OptiPlate 384, black, 45 ul assay volume, assay buffer is DPBS no CaCl2 no MgCl2 (GIBCO N. 14020). Tested compounds are diluted in DMSO and 2 μl is added to the assay ([…]). Assay is started by the addition of the aggregated protein (competitive condition). Plates are shortly shacked (1 min with Sterico variomag teleshake) and incubated for 30 min at room temperature. Measurement are done with En:Vision (Perkin Elmer), at Excitation 531 nm/Emission 595 nm.

[2] = molecular target: T2, aggregated recombinant human-microtubule associated protein Tau (Homo sapiens, UniProt P10636); assay: Thiazin-red R displacement fluorescence assay on aggregated Tau; format: binding; conditions: displacement of Thiazin-red R from aggregated Tau; compound 0.3 nM to 10000 nM; 30 min room temperature; Ex 531 nm/Em 595 nm
T2 construct: Recombinant human-microtubule associated protein Tau purified from E. coli is aggregated at a concentration of 5 μM with Arachidonic Acid (100 μM) in Tris 10 mM pH8, 24 h at 37° C
Description: as §1, §2, §3, §4, §5, §6

T2 sequence (P10636 whole entry): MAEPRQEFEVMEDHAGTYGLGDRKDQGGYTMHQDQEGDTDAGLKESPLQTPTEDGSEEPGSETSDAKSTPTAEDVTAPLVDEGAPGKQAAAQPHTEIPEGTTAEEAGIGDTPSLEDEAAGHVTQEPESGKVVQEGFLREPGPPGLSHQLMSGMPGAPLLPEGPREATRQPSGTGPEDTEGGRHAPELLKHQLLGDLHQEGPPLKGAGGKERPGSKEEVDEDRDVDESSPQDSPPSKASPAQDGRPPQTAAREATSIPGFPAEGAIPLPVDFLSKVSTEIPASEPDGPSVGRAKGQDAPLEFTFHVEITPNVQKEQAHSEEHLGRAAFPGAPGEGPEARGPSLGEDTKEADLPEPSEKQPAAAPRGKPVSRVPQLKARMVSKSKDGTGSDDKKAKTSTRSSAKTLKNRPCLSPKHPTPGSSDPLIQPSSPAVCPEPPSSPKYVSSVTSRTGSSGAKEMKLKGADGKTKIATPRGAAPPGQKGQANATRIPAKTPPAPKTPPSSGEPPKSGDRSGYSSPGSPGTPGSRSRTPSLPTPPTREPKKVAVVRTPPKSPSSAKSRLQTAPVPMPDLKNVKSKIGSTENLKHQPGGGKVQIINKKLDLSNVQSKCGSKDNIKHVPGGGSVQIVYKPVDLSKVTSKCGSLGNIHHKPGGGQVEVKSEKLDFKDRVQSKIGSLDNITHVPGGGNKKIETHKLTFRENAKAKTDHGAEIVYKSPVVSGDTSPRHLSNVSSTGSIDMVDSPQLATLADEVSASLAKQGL
T1 sequence (P05067 672-711 limits assumed): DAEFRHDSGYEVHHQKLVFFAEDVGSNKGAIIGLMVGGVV

SMILES	IC50 [1] [nM]	IC50 [2] [nM]
COc1cc(/C=c2\sc3nc(-c4ccc(C(=O)NCCN)cc4)cn3c2=O)cc(Cl)c1O [Example 151, N-(2-Amino-ethyl)-4-{2-[1-(3-chloro-4-hydroxy-5-methoxy-phenyl)-meth-(Z)-ylidene]-3-oxo-2,3-dihydro-imidazo[2,1-b]thiazol-6-yl}-benzamide]	24	12
COc1cc(/C=c2\sc3nc(-c4ccc(C(F)(F)F)c(F)c4)cn3c2=O)cc(Cl)c1O [Example 28, 2-[1-(3-Chloro-4-hydroxy-5-methoxy-phenyl)-meth-(Z)-ylidene]-6-(3-fluoro-4-trifluoromethyl-phenyl)-imidazo[2,1-b]thiazol-3-one]	1060	23
COc1cc(/C=c2\sc3nc(-c4ccc(N5CCCC5)cc4)cn3c2=O)cc(Cl)c1O [Example 90, 2-[1-(3-Chloro-4-hydroxy-5-methoxy-phenyl)-meth-(Z)-ylidene]-6-(4-(pyrrolidin-1-yl)phenyl)-imidazo[2,1-b]thiazol-3-one]	16	37
CCCOc1cc(/C=c2\sc3nc(-c4cnc[nH]4)cn3c2=O)cc(Cl)c1O [Example 119, 2-[1-(3-Chloro-4-hydroxy-5-propoxy-phenyl)-meth-(Z)-ylidene]-6-(3H-imidazol-4-yl)-imidazo[2,1-b]thiazol-3-one]	3120	60
COc1cc(/C=c2\sc3nc(-c4cc(C)on4)cn3c2=O)cc(Cl)c1O [Example 84, 2-[1-(3-Chloro-4-hydroxy-5-methoxy-phenyl)-meth-(Z)-ylidene]-6-(5-methyl-isoxazol-3-yl)-imidazo[2,1-b]thiazol-3-one]	990	18
COc1cc(/C=c2\sc3nc(-c4ccccc4C)cn3c2=O)cc(F)c1O [Example 9, 2-[1-(3-Fluoro-4-hydroxy-5-methoxy-phenyl)-meth-(Z)-ylidene]-6-o-tolyl-imidazo[2,1-b]thiazol-3-one]	706	105
COc1cc(/C=c2\sc3nc(-c4ccc(Cl)cc4)cn3c2=O)cc(OCCF)c1O [Example 27, 6-(4-Chloro-phenyl)-2-[1-(3-(2-fluoro-ethoxy)-4-hydroxy-5-methoxy-phenyl)-meth-(Z)-ylidene]-imidazo[2,1-b]thiazol-3-one]	7	1
CCN(CC)c1ccc(-c2cn3c(=O)/c(=C/c4cc(Cl)c(O)c(OC)c4)sc3n2)cc1 [Example 91, 2-[1-(3-Chloro-4-hydroxy-5-methoxy-phenyl)-meth-(Z)-ylidene]-6-(4-(diethylamino)phenyl)-imidazo[2,1-b]thiazol-3-one]	184	20
COc1cccc(-c2cn3c(=O)/c(=C/c4cc(F)c(O)c(OC)c4)sc3n2)n1 [Example 48, 2-[1-(3-Fluoro-4-hydroxy-5-methoxy-phenyl)-meth-(Z)-ylidene]-6-(6-methoxy-pyridin-2-yl)-imidazo[2,1-b]thiazol-3-one]	1790	20
CCc1cc(/C=c2\sc3nc(-c4cccc(OC(F)(F)F)c4)cn3c2=O)cc(OC)c1O [Example 40, 2-[1-(3-Ethyl-4-hydroxy-5-methoxy-phenyl)-meth-(Z)-ylidene]-6-(3-trifluoromethoxy-phenyl)-imidazo[2,1-b]thiazol-3-one]	> 10000	701
COc1cc(/C=c2\sc3nc(-c4ccc(C(=O)NCCF)cc4)cn3c2=O)cc(Cl)c1O [Example 116, 4-{2-[1-(3-Chloro-4-hydroxy-5-methoxy-phenyl)-meth-(Z)-ylidene]-3-oxo-2,3-dihydro-imidazo[2,1-b]thiazol-6-yl}-N-(2-fluoro-ethyl)-benzamide]	820	3
COc1cc(/C=c2\sc3nc(-c4cccc(C(N)=O)c4)cn3c2=O)cc(F)c1O [Example 121, 3-{2-[1-(3-Fluoro-4-hydroxy-5-methoxy-phenyl)-meth-(Z)-ylidene]-3-oxo-2,3-dihydro-imidazo[2,1-b]thiazol-6-yl}-benzamide]	591	19
CCCOc1cc(/C=c2\sc3nc(-c4cncnc4)cn3c2=O)cc(Cl)c1O [Example 130, 2-[1-(3-Chloro-4-hydroxy-5-propoxy-phenyl)-meth-(Z)-ylidene]-6-pyrimidin-5-yl-imidazo[2,1-b]thiazol-3-one]	1940	67
COc1cc(/C=c2\sc3nc(-c4cc(C)nc(C)c4)cn3c2=O)cc(F)c1O [Example 64, 2-[1-(3-Fluoro-4-hydroxy-5-methoxy-phenyl)-meth-(Z)-ylidene]-6-(2,6-dimethyl-pyridin-4-yl)-imidazo[2,1-b]thiazol-3-one]	406	32
COc1cc(/C=c2\sc3nc(-c4cc(C)nc(C)c4)cn3c2=O)cc(Br)c1O [Example 65, 2-[1-(3-Bromo-4-hydroxy-5-methoxy-phenyl)-meth-(Z)-ylidene]-6-(2,6-dimethyl-pyridin-4-yl)-imidazo[2,1-b]thiazol-3-one]	304	7
COc1cc(/C=c2\sc3nc(-c4cccc(C#N)c4)cn3c2=O)cc(OC(C)C)c1O [Example 51, 3-{2-[1-(4-Hydroxy-3-methoxy-5-isopropoxyphenyl)-meth-(Z)-ylidene]-3-oxo-2,3-dihydro-imidazo[2,1-b]thiazol-6-yl}-benzonitrile]	> 10000	275
COc1cc(/C=c2\sc3nc(-c4cccc(C(F)(F)F)c4)cn3c2=O)cc(OC)c1O [Example 19, 2-[1-(4-Hydroxy-3,5-dimethoxy-phenyl)-meth-(Z)-ylidene]-6-(3-trifluoromethyl-phenyl)-imidazo[2,1-b]thiazol-3-one]	115	1
COc1cc(/C=c2\sc3nc(-c4ccc(C(=O)N(C)CCF)cc4)cn3c2=O)cc(Cl)c1O [Example 125, 4-{2-[1-(3-Chloro-4-hydroxy-5-methoxy-phenyl)-meth-(Z)-ylidene]-3-oxo-2,3-dihydro-imidazo[2,1-b]thiazol-6-yl}-N-(2-fluoro-ethyl)-N-methyl-benzamide]	621	17
COc1cc(/C=c2\sc3nc(-c4ccc(C(=O)N(C)CCF)cc4)cn3c2=O)cc(F)c1O [Example 146]	1010	48

The remaining lines, values ahead:

IC50 [1] [nM]	IC50 [2] [nM]	SMILES
851	25	COc1cc(/C=c2\sc3nc(-c4ccccc4)cn3c2=O)cc(Cl)c1O [Example 60, 2-[1-(3-Chloro-4-hydroxy-5-methoxy-phenyl)-meth-(Z)-ylidene]-6-phenyl-imidazo[2,1-b]thiazol-3-one]
9	0.8	COc1cc(/C=c2\sc3nc(-c4cccc(CCl)c4)cn3c2=O)cc(Cl)c1O [Example 67, 2-[1-(3-Chloro-4-hydroxy-5-methoxy-phenyl)-meth-(Z)-ylidene]-6-(3-(chloromethyl)phenyl)-imidazo[2,1-b]thiazol-3-one]
123	3	COc1cc(/C=c2\sc3nc(-c4cccc(C(F)(F)F)c4)cn3c2=O)cc(Cl)c1O [Example 24, 2-[1-(3-Chloro-4-hydroxy-5-methoxy-phenyl)-meth-(Z)-ylidene]-6-(3-trifluoromethyl-phenyl)-imidazo[2,1-b]thiazol-3-one]
5650	16	COc1cc(/C=c2\sc3nc(-c4ccccc4F)cn3c2=O)cc(Cl)c1O [Example 53, 2-[1-(3-Chloro-4-hydroxy-5-methoxy-phenyl)-meth-(Z)-ylidene]-6-(2-fluoro-phenyl)-imidazo[2,1-b]thiazol-3-one]
425	17	CCCOc1cc(/C=c2\sc3nc(-c4cccnc4)cn3c2=O)cc(Cl)c1O [Example 110, 2-[1-(3-Chloro-4-hydroxy-5-propoxy-phenyl)-meth-(Z)-ylidene]-6-pyridin-3-yl-imidazo[2,1-b]thiazol-3-one]
1850	21	COc1cc(/C=c2\sc3nc(-c4ccc(C(=O)O)cc4)cn3c2=O)cc(Cl)c1O [Example 98, 4-{2-[1-(3-Chloro-4-hydroxy-5-methoxy-phenyl)-meth-(Z)-ylidene]-3-oxo-2,3-dihydro-imidazo[2,1-b]thiazol-6-yl}-benzoic acid]
1450	17	CCCOc1cc(/C=c2\sc3nc(-c4ccncc4)cn3c2=O)cc(Cl)c1O [Example 111, 2-[1-(3-Chloro-4-hydroxy-5-propoxy-phenyl)-meth-(Z)-ylidene]-6-pyridin-4-yl-imidazo[2,1-b]thiazol-3-one]
700	10.4	COc1cc(/C=c2\sc3nc(-c4cccnc4)cn3c2=O)cc(Cl)c1O [Example 78, 2-[1-(3-Chloro-4-hydroxy-5-methoxy-phenyl)-meth-(Z)-ylidene]-6-(pyridin-3-yl)-imidazo[2,1-b]thiazol-3-one]
